Paper PMC5420417, “Inhibitory Effect of Chemical Constituents Isolated from Artemisia iwayomogi on Polyol Pathway and Simultaneous Quantification of Major Bioactive Compounds” (BioMed Research International, 2017)
Where two headings read alike, the source gives them in different places.

Tests used:
aldose reductase (AR) = target: T1, aldose reductase (AR) (Rattus norvegicus, UniProt P07943); assay: Aldose reductase (AR) inhibitory activity, rat lens homogenate, decrease of β-NADPH absorption at 340 nm; assay type: biochemical, Sprague-Dawley rats
T1 construct: The rat lenses were homogenized in 0.1 M sodium phosphate buffer (pH 6.2) and centrifuged; from tissue; host or cells: lens of Sprague-Dawley rats (homogenate supernatant)
Protocol: Rat lenses (one lens per 0.5 mL sodium buffer) were obtained from Sprague-Dawley rats (weighing 250~280 g). The rat lenses were homogenized in 0.1 M sodium phosphate buffer (pH 6.2) and centrifuged at 10,000 rpm (4°C, 20 min). After centrifugation, the supernatant was used as an enzyme. AR activity was spectrophotometrically determined by measuring the decrease in the absorption of β-NADPH at 340 nm for a 4 min period using DL-glyceraldehydes as substrates. The assay mixture contained 1.6 mM β-NADPH, 0.1 M potassium phosphate buffer (pH 7.0), AR homogenate, 4 M ammonium sulfate, 0.025 M DL-glyceraldehyde, and the sample in 100% DMSO. The total volume of the assay mixture was 0.3 mL and the reaction was performed in a 96-well plate. 3,3′-Tetramethylene glutaric acid (TMG), a typical AR inhibitor, was used as a positive control.
(§1) Inhibition (%): (Ac − As/Ac) × 100. In AR inhibition activity, Ac is absorbance of control and As is absorbance of samples. In AGEs formation inhibition activity, Ac is fluorescence of control and As is fluorescence of samples. […] IC50 values were calculated from the least-squares regression line of the log of concentration plotted against residual activity. All assays were performed in triplicate. Data was presented as mean ± standard deviation (SD).

[1] = system: advanced glycation endproducts (AGEs) formation; assay: AGEs formation inhibitory activity, bovine serum albumin with fructose and glucose, fluorescence; assay type: biochemical; settings: for IC50: ND = not detected
Protocol: Inhibition of AGEs formation was determined by an assay containing bovine serum albumin (10 mg/mL) in 50 mM phosphate buffer (pH 7.4) with 0.02% sodium azide, to which 0.4 M fructose and glucose was added. The assay mixture was incubated at 60°C for 2 days. After incubating, the reaction was measured on Fluorescence in a 96-black-well plate (excitation wavelength 350 nm, emission wavelength 450 nm). Aminoguaidine (AG) was used as a positive control.
as §1

AR = system: AR; set-up: method as in PMID 21092751, PMID 18379080; settings: previous literature ref 24, 38; cited from earlier work
[2] = rat lens AR, DL-glyceraldehyde substrate, mean ± SD, triplicate, read-out: IC50 AR
[3] = BSA 10 mg/mL, 0.4 M fructose and glucose, 60°C, 2 days, mean ± SD

`COc1cc(O)c2c(=O)cc(-c3ccc(O)cc3)oc2c1` [Compound 3, genkwanin] gave an IC50 (aldose reductase (AR); [2]) greater than 200 µM and an IC50 [1, 3] of 312 ± 11.3 µM.

`COc1cc2ccc(=O)oc2cc1O[C@@H]1O[C@H](CO)[C@@H](O)[C@H](O)[C@H]1O` [Compound 2, scopolin] showed an IC50 (aldose reductase (AR); [2]) of 131.37 ± 0.12 µM and an IC50 [1, 3] of 82.4 ± 1.52 µM.

`O=C(/C=C/c1ccc(O)c(O)c1)OC1CC(O)(C(=O)O)CC(O)C1OC(=O)/C=C/c1ccc(O)c(O)c1` (centres unmarked) [Compound 14, 3,4-di-O-caffeoylquinic acid] showed an IC50 (aldose reductase (AR); [2]) of 1.9 ± 0.01 µM and an IC50 [1, 3] of 124 ± 4.25 µM.

With `COc1cc(-c2cc(=O)c3c(O)c(OC)c(O)cc3o2)ccc1O` [Compound 5, jaceosidin] the IC50 (aldose reductase (AR); [2]) was 111 ± 9.89 µM and the IC50 [1, 3] was 170 ± 16.4 µM.

With `COc1cc2ccc(=O)oc2cc1O` [Compound 1, scopoletin] the “inhibition of AR (in words)” value (aldose reductase (AR); rat lens AR) was “minor inhibition”, the IC50 (aldose reductase (AR); [2]) was 90.4 ± 1.91 µM and the IC50 [1, 3] was 20.7 ± 1.38 µM.

Work on `COc1c(O)cc2oc(-c3ccc(O)cc3)cc(=O)c2c1O` [Compound 4, hispidulin] yielded an IC50 (aldose reductase (AR)) of 2.93 ± 0.11 µM and an IC50 [1, 3] of 185.6 ± 0.2 µM.

In the case of `C[C@@H]1O[C@@H](OC[C@H]2O[C@@H](Oc3c(-c4ccc(O)c(O)c4)oc4cc(O)cc(O)c4c3=O)[C@H](O)[C@@H](O)[C@@H]2O)[C@H](O)[C@H](O)[C@H]1O` [Compound 11, rutin], the IC50 (aldose reductase (AR); [2]) is reported as 12.5 ± 0.2 µM and the IC50 [1, 3] is reported as 129 ± 4.01 µM.

For `CC1(C)C(O)CCC2(C)C3CCC4CC3(CCC12)CC4(O)COC1OC(CO)C(O)C(O)C1O` (centres unmarked) [Compound 18, suavioside A], the IC50 (aldose reductase (AR); [2]) was greater than 200 µM.

With `COC(=O)C1(O)CC(OC(=O)/C=C/c2ccc(O)c(O)c2)C(O)C(OC(=O)/C=C/c2ccc(O)c(O)c2)C1` (centres unmarked) [Compound 16, 3,5-di-O-caffeoylquinic acid methyl ester] the IC50 (aldose reductase (AR); [2]) was 1.48 ± 0.04 µM and the IC50 [1, 3] was 44.5 ± 4.86 µM.

`CC1(C)C(=O)CCC2(C)C3CCC4CC3(CCC12)CC4(O)COC1OC(CO)C(O)C(O)C1O` (centres unmarked) [Compound 19, sugeroside] gave an IC50 (aldose reductase (AR); [2]) greater than 200 µM.

For `O=C(O)/C=C/c1ccc(O)c(O)c1` [caffeic acid], the “inhibitory activity on AR (in words)” value (AR) is given as “no inhibitory activity”.

With `COc1cc(OC2OC(CO)C(O)C(O)C2O)cc(O)c1C(C)=O` [Compound 20, 2,4-dihydroxy-6-methoxyacetophenone 4-O-β-D-glucopyranoside] the IC50 (aldose reductase (AR); [2]) was greater than 200 µM, the IC50 [1, 3] was 1049 ± 0.11 µM and the “inhibition of AGEs formation (in words)” value ([1]; BSA/fructose/glucose) was “only slight inhibition”.

In the case of `O=C(/C=C/c1ccc(O)c(O)c1)OC1CC(OC(=O)/C=C/c2ccc(O)c(O)c2)(C(=O)O)CC(O)C1O` (centres unmarked) [Compound 13, 1,3-di-O-caffeoylquinic acid], the “inhibition of AR (in words)” value (aldose reductase (AR); rat lens AR) is reported as “strongest inhibition”, the IC50 (aldose reductase (AR); [2]) is reported as 0.22 ± 0.01 µM and the IC50 [1, 3] is reported as 24.9 ± 1.86 µM.

`O=c1c(O[C@@H]2O[C@H](CO)[C@@H](O)[C@H](O)[C@H]2O)c(-c2ccc(O)c(O)c2)oc2cc(O)cc(O)c12` [Compound 9, isoquercetin] gave an IC50 (aldose reductase (AR); [2]) of 3.32 ± 0.21 µM and an IC50 [1, 3] of 67.4 ± 9.95 µM.

Compound `O=C(/C=C/c1ccc(O)c(O)c1)OC1CC(O)(C(=O)O)CC(O)C1O` (centres unmarked) [Compound 12, 3-O-caffeoylquinic acid] has an IC50 (aldose reductase (AR); [2]) of 4.54 ± 0.16 µM and an IC50 [1, 3] of 176 ± 5.77 µM.

For `COc1c(O)cc2oc(-c3ccc(O)c(O)c3)c(OC3OC(CO)C(O)C(O)C3O)c(=O)c2c1O` (centres unmarked) [Compound 8, patuletin-3-O-glucoside], the IC50 (aldose reductase (AR); [2]) was 3.19 ± 0.1 µM and the IC50 [1, 3] was 197 ± 11 µM.

`O=C(/C=C/c1ccc(O)c(O)c1)OC1CC(O)(C(=O)O)CC(OC(=O)/C=C/c2ccc(O)c(O)c2)C1O` (centres unmarked) [Compound 15, 3,5-di-O-caffeoylquinic acid] showed an IC50 [1, 3] of 31.8 ± 0.56 µM.

With `O=C(O)CC1(CC(=O)O)CCCC1` [TMG, 3,3′-Tetramethylene glutaric acid, reference compound] the “IC50 AR” value (aldose reductase (AR); rat lens AR, DL-glyceraldehyde substrate, extract and fractions, mean ± SD, triplicate) was 1.22 ± 0.03^∗ μg/ml and the IC50 (aldose reductase (AR); [2]) was 6.58 ± 0.19 µM.

For `CC1(C)C(O)CCC2(C)C3CCC4CC3(CCC12)CC4(O)COC1OC(CO)C(O)C(O)C1O` (centres unmarked) [Compound 17, iwayoside A], the IC50 (aldose reductase (AR); [2]) was greater than 200 µM.

With `N=C(N)NN` [AG, Aminoguaidine, reference compound] the “IC50 AGEs formation” value ([1]; BSA 10 mg/mL, 0.4 M fructose and glucose, 60°C, 2 days, extract and fractions, mean ± SD) was 45.85 ± 7.17^∗∗ μg/ml and the IC50 [1, 3] was 415 ± 5.96 µM.
